For series [1], the system named is Pseudaletia separata Walker. The experiment in a line: Insecticidal activity against armyworms, leaf-dipping method. It counts as in vivo. The following applies: for LC50 / mortality at 500 µg/mL: Mythimna separata; for mortality at 500 µg/mL: read-out: Pseudaletia separata Walker Mortality rate (%, 500 mg L^−1). An excerpt: Second instar Pseudaletia separata Walker larvae were used as the subjects and the dipping method was employed for testing.
Pseudaletia separata Walker, which is a very important lepidopterans pest of various grains, can be suitably used in various of applications, for example, in the study of toxicity, such as the stomach toxicity, contact poisoning, comprehensive and residual effects of insecticides, and other aspects of insect toxicology, as well as the screen test for new compounds. Pseudaletia separata Walker extermination activity was tested in accordance with a method reported in the literature.
Operation procedure of the leaf-dipping method: Each sample was precisely weighed, and 2 mL of DMSO and 18 mL of water were added respectively; and then, three drops of the emulsion agent 2001 (procured from Shanghai Nongyaochang Co., Ltd.) were added to form the test liquid. A blank was also formulated by adding three drops of the 2201 emulsion agent to 2 mL of DMSO and […]. Fresh corn leaves were torn into small pieces and immersed for about five seconds in the liquid, then removed, air-dried, and placed in a 100-mL jar. About 20 2nd instar larvae were introduced into the jar. The jar was closed using white gauze and a rubber band, and the larvae were fed with corn soaked with the liquid continuously. The mortality rate of the larvae was checked after five days. The requisite temperature was 22° C. to 27° C., humidity 70% to 80%. There was no need to correct the mortality rates for each treatment if the blank mortality rate was 5% or less; however, if the control mortality rate was 5% to 20%, Abbott's correction should be used for the mortality rates for each treatment. Abbott's formula: Corrected mortality rate=[(treated mortality rate−control mortality rate)/(100−control mortality rate)×100].

In series [2] the test system is N1 α 1/β 2 receptors expressed by the oocytes. As to the kind of experiment: Mechanism of action, electrophysiological testing on receptors expressed by oocytes. It counts as cell-based. From the text: (§1) The compound (1a) was separately subjected to electrophysiological testing and isotope marker substitution testing.
For series [3], the system named is nicotinic acetylcholine receptors of Periplaneta americana. The experiment in a line: Mechanism of action, electrophysiological testing on cockroach nAChRs. It counts as cell-based.
Excerpt: as §1

Another series relates to Aphis craccivora. As to the kind of experiment: Insecticidal activity against aphids, dipping method. It counts as in vivo. The following applies: for LC50 / mortality at 500 µg/mL: Aphis craccivora; for mortality at 500 µg/mL: read-out: Aphis craccivora Mortality rate (%, 500 mg L^−1). The procedure:
Aphids, which belong to the Homoptera and have piercing-sucking mouth parts, are a common pest for agricultural crops. Aphis craccivora was used as the subject, and a dipping method was employed for testing.
Testing method: Each sample was precisely weighed, and 2 mL of DMSO and 18 mL of water were added respectively; then, three drops of the emulsion agent 200I were added to form a testing liquid; a blank was also prepared by adding three drops of emulsion agent 220I to 2 mL of DMSO and 18 mL of water. Broad bean leaves adhered by a certain number of insects were immersed in the testing liquid for three to five seconds, then removed and air-dried; the insects were moved into a clean container together with feed, and the container was placed in a dry, thermostatic recovery room. After 24 hours, the number of dead insects was checked.

Series [4] relates to Nilaparvata lugens resistant strain. The experiment in a line: Insecticidal activity against Nilaparvata lugens, micro-drip method, resistant strain. It counts as in vivo. As to conditions: for Magnitude of resistance: resistant strain versus susceptible strain; for Relative toxicity / LD50 (ng/pest): resistant strain; for Relative toxicity: relative to imidacloprid; for LD50 (ng/pest): topical micro-drip, 48 hours. As to the method:
(§2) Nilaparvata lugens, which belongs to the Homoptera and has piercing-sucking mouth parts, is a common pest for agricultural crops. Nilaparvata lugens was used as the subject, and the micro-drip measurement method reported by Nagata was employed for testing.
(§3) Operation procedure: Unmated winged females two to three days after eclosion were selected as the test subjects; the compounds were diluted in acetone to a series of concentrations. The insects were paralyzed by carbon dioxide, and the liquid (0.08 μL) was dripped onto the pronotum of the insects using a manual micro-dripper (Burkard Manufacturing Co., Ltd., Rickmansworth, UK). Each of the concentrations was used to treat about 30 insects in triplicate. Acetone was used as the control. The treated adult insects were cultured on rice seedlings grown without soil in an incubator (20×20×10 cm), where the temperature was controlled at 25±1° C. with 16/8 hours of light and dark cycle. The results were checked after 48 hours, and the LD50 was calculated using a standard probability analysis method.

The test system of series [5] is Nilaparvata lugens susceptible strain. As to the kind of experiment: Insecticidal activity against Nilaparvata lugens, micro-drip method, susceptible strain. It counts as in vivo. The following applies: for Magnitude of resistance / Relative toxicity / LD50 (ng/pest): susceptible strain; for Relative toxicity: relative to imidacloprid; for LD50 (ng/pest): topical micro-drip, 48 hours. The procedure: as §2, §3

The mark [6] stands for this setting: foliar, 120 h, read-out: Pseudaletia separata Walker LC50 (mmol L^−1).
The mark [7] stands for this setting: 24 h, read-out: Aphis craccivora LC50 (mmol L^−1).

In brackets after ≈: the same amount, converted by molar mass. Like-named read-outs stand apart in the source and are kept apart here.

The values that follow come from patent publication US8809319B2, “Substituted 8-oxa-10,11-dihydroimidazo[2,3-a]bicyclo[3.2.1]oct-3-enes and use thereof as an insecticide” (priority 2009, dated 2014).

With `O=[N+]([O-])C1=C2N(Cc3ccc(Cl)nc3)CCN2[C@@H]2CC[C@H]1O2` [Compound 1a, 9-((6-chloropyrid-3-yl)methyl)-4-nitro-8-oxa-10,11-dihydroimidazo-[2,3-a]-bicyclo-[3,2,1]-oct-3-ene], the median lethal concentration (LC50) in series [1] (setting [6]) worked out at 12.5 µg/mL (≈ 38.7 µM); in series [1] (read-out: LC50 against Pseudaletia separata Walker) it was 12.5 µg/mL (≈ 38.7 µM); in the series with Aphis craccivora (setting [7]) it was 1.52 µg/mL (≈ 4.71 µM); in the series on Aphis craccivora (read-out: LC50 against aphids), 1.52 µg/mL (≈ 4.71 µM). The mortality at 500 µg/mL in series [1] (foliar, 120 h) amounted to 100%; in the series on Aphis craccivora (24 h), 100%. Further, in series [2], the “agonistic action on N1 α 1/β 2 receptors expressed by the oocytes” value was “no agonistic action”. The “mode of action on nicotinic acetylcholine receptor (nAChRs)” value in series [3] (conclusion from electrophysiological and isotope marker substitution testing) is listed as “antagonist”. The “agonistic action on nicotinic acetylcholine receptors of Periplaneta americana” value in series [3] (electrophysiological testing) was “no agonistic action”. For the same compound, the “inhibition of the agonist response to acetylcholine” value in series [3] (receptor preparation not given) is “can inhibit the agonist response to acetylcholine”. In addition, the “activity against imidacloprid-resistant Niloparvata lugens versus imidacloprid” value in series [4] was 50 times. In addition, the values for the Magnitude of resistance in series [4] and in series [5] were 6.64 and 1.00, respectively. The Relative toxicity in series [4] came out at 50.00; in series [5], 1.77. For the same compound, the “LD50 (ng/pest)” value in series [4] is given as 0.4925 ± 0.0811 ng/pest; in series [5] it was 0.0742 ± 0.0106 ng/pest. For the same compound, the “activity against susceptible Niloparvata lugens versus imidacloprid” value in series [5] is on record as “generally the same as that of imidacloprid”.

Consider `O=[N+]([O-])C1=C2N(Cc3cnc(Cl)s3)CCN2[C@@H]2CC[C@H]1O2` [Compound 1b, 9-((2-chlorothiazol-5-yl)methyl)-4-nitro-8-oxa-10,11-dihydroimidazo-[2,3-a]-bicyclo-[3,2,1]-oct-3-ene], for which the mortality at 500 µg/mL in series [1] (foliar, 120 h) was 100%; in the series on Aphis craccivora (24 h) it was 100%.

As to `O=[N+]([O-])C1=C2N(Cc3ccccc3)CCN2[C@@H]2CC[C@H]1O2` [Compound 1c, 9-benzyl-4-nitro-8-oxa-10,11-dihydroimidazo-[2,3-a]-bicyclo-[3,2,1]-oct-3-ene], the mortality at 500 µg/mL in series [1] (foliar, 120 h) came to 0%; in the series on Aphis craccivora (24 h) it was 13.6%.

For the compound `O=[N+]([O-])C1=C2N(Cc3ccc(Cl)cc3)CCN2[C@@H]2CC[C@H]1O2` [Compound 1d, 9-(4-chloro-benzyl)-4-nitro-8-oxa-10,11-dihydroimidazo-[2,3-a]-bicyclo-[3,2,1]-oct-3-ene], the mortality at 500 µg/mL in series [1] (foliar, 120 h) worked out at 0%; in the series on Aphis craccivora (24 h), 95.7%.

For the compound `O=[N+]([O-])C1=C2N(Cc3ccc(Cl)nc3)CCN2[C@H]2CCC[C@@H]1O2` [Compound 2a, 10-((6-chloropyrid-3-yl)methyl)-4-nitro-9-oxa-11,12-dihydroimidazo-[2,3-a]-bicyclo-[3,3,1]-non-3-ene], the mortality at 500 µg/mL came to 0% in series [1] (foliar, 120 h) and 87.3% with Aphis craccivora (24 h). For the same compound, the Magnitude of resistance in series [4] came to 4.58; in series [5], 1.00. For the same compound, the Relative toxicity is 1.17 in series [4] and 0.32 in series [5]. For the same compound, the “LD50 (ng/pest)” value came to 18.9795 ± 2.3501 ng/pest in series [4] and 4.1440 ± 0.6136 ng/pest in series [5].

With `O=[N+]([O-])C1=C2N(Cc3cnc(Cl)s3)CCN2[C@H]2CCC[C@@H]1O2` [Compound 2b, 10-((2-chlorothiazol-5-yl)methyl)-4-nitro-9-oxa-11,12-dihydroimidazo-[2,3-a]-bicyclo-[3,3,1]-non-3-ene], the mortality at 500 µg/mL in series [1] (foliar, 120 h) is 0%; with Aphis craccivora (24 h), 98.2%.

`O=[N+]([O-])C1=C2N(Cc3ccccc3)CCN2[C@H]2CCC[C@@H]1O2` [Compound 2c, 10-benzyl-4-nitro-9-oxa-11,12-dihydroimidazo-[2,3-a]-bicyclo-[3,3,1]-non-3-ene]: the mortality at 500 µg/mL came out at 0% in series [1] (foliar, 120 h) and 55.6% in the series with Aphis craccivora (500 mg L^−1, dipping, after 24 hours).

Turning to `O=[N+]([O-])C1=C2N(Cc3ccc(Cl)cc3)CCN2C2CCCC1O2` (stereo not drawn) [Compound 2d, 10-(4-chlorobenzyl)-4-nitro-9-oxa-11,12-dihydroimidazo-[2,3-a]-bicyclo-[3,3,1]-non-3-ene], in series [1] (in vivo), the “Pseudaletia separata Walker Mortality rate (%, 500 mg L^−1)” value is 0%. The “Aphis craccivora Mortality rate (%, 500 mg L^−1)” value with Aphis craccivora (in vivo) is listed as 38.9%.

For the compound `O=[N+]([O-])NC1=NCCN1Cc1ccc(Cl)nc1` [Imidacloprid, reference compound], the LC50 in series [1] (setting [6]) was 38.7 µg/mL (≈ 151 µM); with Aphis craccivora (setting [7]), 8.93 µg/mL (≈ 34.9 µM). In addition, the mortality at 500 µg/mL in series [1] (foliar, 120 h) came to 100%; in the series on Aphis craccivora (24 h), 100%. Also, the Magnitude of resistance in series [4] turned out to be 168.40; in series [5] it was 1.00. Besides, the Relative toxicity in series [4] and in series [5] was 1.00 each time. In addition, the entries for the “LD50 (ng/pest)” value in series [4] and in series [5] were 22.1614 ± 3.7522 ng/pest and 0.1316 ± 0.0154 ng/pest, respectively.
